Laboratory results as given in patent publication US20090010923A1, “TREATMENT OF CANCER WITH ANTI-MUSCARINIC RECEPTOR AGENTS” (University of Maryland, Baltimore, priority 2007, published 2009).
“Also recorded” adds a separate entry of the source.

How the values were obtained:
H508 cells [1] = assay: p44/42 MAPK phosphorylation/activation in H508 colon cancer cells; assay type: cell-based, human
Text: (§1) In H508 colon cancer cells, acetylcholine (ACh) activates p44/42 MAPK and p90RSK, which is a nuclear response protein that regulates gene expression and the cell cycle.

[2] = system: CHO cells expressing rat M3R (CHO-rM3R); assay: p44/42 MAPK phosphorylation in CHO cells expressing rat M3R; assay type: cell-based
Text: as §1

WT and M3R−/− mice = assay: AOM murine colon cancer model (WT and M3R-/- mice); assay type: in vivo, mouse; conditions: for colon tumor number: 20 weeks
Protocol: WT and M3R^−/− male mice (129S6/SvEvTac×CFl; 50%/50%) were treated for 6 wks in which 48 animals received weekly intraperitoneal (ip) PBS (control) or AOM (10 mg/kg). The AOM mouse model is a well-established, commonly used model that mimics human colon carcinogenesis. AOM, an intermediate in the metabolism of 1,2-dimethylhydrazine to the alkylating ion methyldiazonium, is a well-known colorectal-specific pro carcinogen. AOM-induced rodent tumors mimic human colon cancer in that most tumors arise in the colon, form grossly visible exophytic polypoid or plaque-like growths, and have a microscopic appearance similar to that of human lesions. Molecular changes in AOM-induced tumors, including β-catenin and p53 mutations, which also mimic those in human colon cancer. […] Short-term study end-points are identified (e.g. aberrant crypt foci (ACF), β-catenin-accumulating crypts (BCAC) and BrdUrd staining) and potential toxicity was evaluated, a smaller group of mice is euthanized early, upon completion of AOM treatment. During the study, WT and M3R^−/− mice were given weekly (for 6 weeks) intraperitoneal (ip) PBS (control; n=10 WT-PBS mice) or AOM (10 mg/kg; n=22 WT-AOM and 16 WT and M3R^−/−-AOM mice). […] Animals were housed under identical conditions and fed standard mouse chow. Mice were weighed weekly, observed for evidence of tumor formation (e.g., anal bleeding) and euthanized at 20 weeks. Colon length was measured, segments opened longitudinally, and tumors identified and photographed using a Nikon SMZ1500 dissecting microscope. Tumor number and diameter were measured using Image-Pro software and tumor volume was calculated: vol=½ width×length^2. Two hours before euthanasia, mice received intraperitoneal injection of BrdU (Sigma-Aldrich) (50 mg/kg) to label S-phase cells, a marker of proliferation. BrdU labeling was determined after immunostaining with anti-BrdU antibody (BD Bioscience) by counting BrdU-positive nuclei in 1000 cells (data expressed as percent of total cells that were BrdU-positive). As a marker of apoptosis, we used immunostaining with anti-activated caspase-3 antibody (Cell Signaling Technology). Only complete crypts were evaluated and investigators were masked to treatment group. For analysis of both BrdU and activated caspase-3 staining, only tissue from the distal half of the colon was examined.

H508 cells [3] = assay: Cell proliferation, sulforhodamine B (SRB) colorimetric assay, H508 cells; assay type: cell-based, human; conditions: 5 days, 37° C.; for proliferation of H508 cells: alone, cells co-express M3R and EGFR
Protocol: (§2) FIG. 1 depicts bile acid-induced colon cancer cell proliferation which requires M3R expression and activation in H508 and SNU-C4 cells. […] Cell proliferation was determined using the sulforhodamine B (SRB) colorimetric assay. Mean±SEM of 3 exp.
(§3) Cells that are known to express both EGFR and M3R were treated with several M3R antagonists and bile acid conjugates to determine if M3R ligand binding affected EGFR activation. […] Cell proliferation was determined using the sulforhodamine B (SRB) colorimetric assay. […] Mean±SEM of 3 exp.
MAPK activation was detected with 10 μM and maximal with 300 μM DCT. […] DCT-induced MAPK activation is rapid and reversible. MAPK activation is detected within 1 min, maximal by 10-20 min and returns to basal by 70 min. Collectively these findings emphasize the importance of co-expression of M3R and EGFR for both ACh- and bile acid-induced colon cancer cell proliferation, and define relevant DCT concentrations.

SNU-C4 cells = assay: Cell proliferation, sulforhodamine B (SRB) colorimetric assay, SNU-C4 cells; assay type: cell-based, human; conditions: 5 days, 37° C., alone; cells express EGFR but not M3R
Protocol: as §2, §3

colon cancer cells [4] = assay: Caspase-3 activation (apoptosis) in colon cancer cells; assay type: cell-based
Text: (§4) apoptosis, or both. Deoxycholic acid induces apoptosis.

colon cancer cells [5] = assay: Post-EGFR PI3K/Akt and GSK-3 signaling in colon cancer cells; assay type: cell-based
Text: The rationale for including both murine colon cancer models in this study is to observe important differences between these cancer models. Although the Apc^Min/+ genotype mimics more closely the human condition (e.g. FAP), the AOM-treated mouse phenotype is more similar to human colon cancer. […] Additionally, Apc^Min/+ mice provide an opportunity to study the relationship between M3R and activation and expression of genes in the Wnt/β-catenin signaling pathway. Binding of Wnt to its cell surface receptor (Frizzled) leads to activation of β-catenin (nuclear translocation and binding to Tcf/LEF, resulting in transcription of important target genes, including cyclin D1). Apc, is a scaffold protein that promotes GSK-3α/β-mediated phosphorylation of β-catenin; phosphorylated β-catenin is targeted for proteosomal degradation, thereby preventing nuclear translocation and pro-proliferative gene transcription. Mutated Apc in Apc^Min/+ mice results in reduced β-catenin phosphorylation, thereby promoting nuclear translocation and pro-proliferative actions. […] These findings provide strong evidence that bile acid-activated M3R signaling can promote pro-proliferative actions of β-catenin. The Apc^Min/+ mouse provides an excellent model to elucidate the role of M3R activation and expression in Wnt/β-catenin signaling.
as §4

[6] = system: muscarinic receptors on gastric chief cells; assay: Pepsinogen secretion from gastric chief cells; assay type: cell-based
[7] = system: muscarinic receptors on gastric chief cells; assay: Competition for binding with a muscarinic radioligand, gastric chief cells
[8] = system: muscarinic receptors on gastric chief cells; assay: IP formation, gastric chief cells; assay type: cell-based
[9] = cited from earlier work
M1R and M3R = system: M1R and M3R
Text: Muscarinic receptor subtypes were expressed in murine gastric chief cells using M1R^−/−, M3R^−/− and M1/3R^−/− mice. […] The mice were generated using gene targeting.

## CC(=O)OCC[N+](C)(C)C [ACh, acetylcholine]
H508 cells [1]; H508 cells
  ACh-induced p44/42 MAPK phosphorylation: 14 fold
[2]
  ACh-induced p44/42 MAPK phosphorylation: 27 fold

## CN=[N+](C)[O-] [AOM, azoxymethane]
WT and M3R−/− mice; AOM-treated M3R-/- mice
  BrdU-positive cells in colon epithelium: 7.2±0.9%
  adenocarcinomas/mouse: 0.6±0.1
  mice with adenomas: 6%
  tumor volume: 8.1±1.5 mm^3
  colon tumor number: 3.2±0.3 tumors/colon
WT and M3R−/− mice; AOM-treated WT mice
  BrdU-positive cells in colon epithelium: 16.6±4.0%
  adenocarcinomas/mouse: 1.7±0.4
  mice with adenomas: 36%
  tumor volume: 20.3±4.1 mm^3
  colon tumor number: 5.3±0.5 tumors/colon
WT and M3R−/− mice; AOM-treated WT mice vs PBS-treated WT, 10 mg/kg ip weekly x 6 wks, 20 wks
  increase in BrdU-positive epithelial cells: 5 fold
WT and M3R−/− mice; PBS-treated WT, AOM-treated WT and M3R-/- mice
  number of apoptotic cells (activated caspase-3): no significant difference
WT and M3R−/− mice; WT mice treated with AOM
  increase in tumors/animal: 5 fold

## C[C@H](CCC(=O)NCC(=O)O)[C@H]1CC[C@H]2[C@@H]3CC[C@@H]4C[C@H](O)CC[C@]4(C)[C@H]3C[C@H](O)[C@]12C [DCG]
H508 cells [3]
  proliferation of H508 cells: stimulate proliferation
SNU-C4 cells
  proliferation of SNU-C4 cells: do not significantly alter proliferation

## C[C@H](CCC(=O)NCCS(=O)(=O)O)[C@H]1CC[C@H]2[C@@H]3CC[C@@H]4C[C@H](O)CC[C@]4(C)[C@H]3C[C@H](O)[C@]12C [DCT, Deoxycholyltaurine]
H508 cells [1]
  DCT concentration at which MAPK activation was detected: 10 µM
  DCT concentration at which MAPK activation was maximal: 300 µM
  time at which MAPK activation is detected: ≤ 1 min
  time at which MAPK activation returns to basal: ≤ 70 min
  time of maximal MAPK activation: 10 to 20 min
H508 cells [3]
  proliferation of H508 cells: stimulate proliferation; also recorded: stimulated after 5 days
SNU-C4 cells
  proliferation of SNU-C4 cells: do not significantly alter proliferation
Colon cancer cells [4]
  DCT-induced apoptosis (caspase-3 activation): no evidence of DCT-induced apoptosis
Colon cancer cells [5]; colon cancer cells
  phosphorylation of GSK-3α/β: stimulates an inactivating phosphorylation
Colon cancer cells [5]; preliminary studies
  post-EGFR PI3K/Akt signaling: activates

## C[C@H](CCC(=O)NCCS(=O)(=O)O)[C@H]1CC[C@H]2[C@@H]3CC[C@@H]4C[C@H](O)CC[C@]4(C)[C@H]3CC[C@]12C [LCT, lithocholyltaurine]
H508 cells [3]
  proliferation of H508 cells: stimulate proliferation
SNU-C4 cells
  proliferation of SNU-C4 cells: do not significantly alter proliferation
[6]
  pepsinogen secretion: stimulating pepsinogen secretion
[7]
  competition for binding with a muscarinic radioligand: competed for binding
[8]
  IP formation: increased IP formation

## CN1[C@@H]2CC[C@H]1C[C@@H](OC(=O)C(CO)c1ccccc1)C2 (stereo partly drawn) [atropine]
H508 cells [3]; with DCT
  inhibition of actions of DCT on H508 proliferation: inhibited
[6]
  inhibition of the actions of LCT: inhibited the actions of LCT

## CCCC[N+]1(C)[C@@H]2C[C@@H](OC(=O)[C@H](CO)c3ccccc3)C[C@H]1[C@@H]1O[C@@H]12 (stereo partly drawn) [scopolamine butylbromide]
[9]; in vivo
  activity of metabolites: inactive
  half-life of the terminal elimination phase: about 5 hr
  protein binding: low
[9]; quaternary ammonium derivative
  blood-brain barrier crossing: does not cross the blood-brain barrier

## NCCS(=O)(=O)O [taurine]
[6]
  pepsinogen secretion: did not alter
[7]
  competition for binding with a muscarinic radioligand: did not alter
[8]
  IP formation: did not alter

## cholecystokinin [cholecystokinin (CCK)]
M1R and M3R
  agonist-induced pepsinogen secretion: not altered

## cholyltaurine
[6]
  pepsinogen secretion: did not alter
[7]
  competition for binding with a muscarinic radioligand: did not alter
[8]
  IP formation: did not alter
